Experimental data from patent publication US20120231007A1, “MODULATORS OF CELL CYCLE PROGRESSION” (SINGAPORE HEALTH SERVICES PTE. LTD., priority 2009, published 2012).
Peptide text beside a SMILES is read from it. * marks the point of attachment. Cbz = O=C(OCc1ccccc1)*

Columns and labels:
U118 glioma cells = test: Warburg effect: Western blot of AMPK phosphorylation, mTOR activity and ECT2 expression; type: cell-based, human
Method: Western blot analysis. Whole cell lysates were prepared at the indicated time points following treatment. Cells were lysed in 0.1% SDS buffer (50 mM Tris-HCl, pH7.5, 150 mM NaCl, 1% NP-40, 1% sodium deoxycholate, 0.1 mM sodium vanadate, 50 mM b-glycerophosphate, 1 mM NaF) supplemented with protease inhibitor cocktail (Roche, Basel, Switzerland). Lysates were clarified by centrifugation at 13,000 rpm for 20 min at 4° C. Protein quantity was determined by the Bradford Assay Reagent (Bio-Rad). Typically, 50 μg of protein was resolved on either 6% or 12% SDS-polyacrylamide and transferred onto PVDF membranes (Millipore, Billerica, Mass.). Membranes were probed using antibodies specific to Ect2 and other proteins listed in the attached document. Protein bands were visualized by chemiluminescence using the ECL Western blotting system (Amersham, Arlington Heights, Ill.) according to manufacturer's protocol. Actin was used as loading control.
The use of ECT2 inhibitor sensitizes glioma cell stochemotherapy treatment such as with Temozolomide (FIG. 14). ECT2 regulation by RTK/mTOR pathway through EGFR inhibition (FIG. 18) with Erlotinib (10 uM) (FIG. 18A), Akt inhibition with API2 (10 uM), and mTOR inhibition with Rapamycin (50 nM) (FIG. 18B) Warburg effect and ECT2 regulation was examined in U118 glioma cells. The cells were treated with glycolysis or oxidative phosphorylation inhibitors [2-Deoxy-glucose (2DG) and oligomycin, respectively]. Filipin III was used to permeabilise mitochondria to provide exogenous source of pyruvate for the Tricarboxylic acid (TCA) cycle. Cellular energy level was measured by Western blot analysis of AMPK phosphorylation.

p27^Kip1 = test: Western blot of p27^Kip1 protein; type: cell-based, human; conditions: MG132 100 nM added to cells over-expressing Ect2
Method: Cell Culture and Transfection. A172, U87, U118, U373 and T98G human glioma cells (ATCC, Manassas, Va.) were cultured in Dulbecco's modified Eagle's medium (DMEM) supplemented with 10% fetal bovine serum (Hyclone, South Logan, Utah). Cells were synchronised at quiescence through serum starvation. Full-length human Ect2 was cloned into the expression vector pXJ41 using EcoRI and BamHI digestion. The Ect2 truncation mutants ΔN-Ect2-DH/PH/C, ΔN-Ect2-DH/PH and ΔN-Ect2-DH were cloned in pCTV3-HA3. p27-PF, p27-ApaI, pGVB2 were gifts. For transient expression, cells were seeded at 40% confluence and transfected with 1.5 μg of DNA using Polyfect transfection reagent (Qiagen GmBH, Hilden, Germany). For knockdown experiments, Ect2 siRNAs were transfected into cells using SilentFect (Bio-Rad, Hercules, Calif.). RhoA inhibitor C3 exoenzyme (Upstate Biotech, Billerica, Mass.) was introduced into cells using Lipofectamine2000 (Invitrogen, Carlsbad, Calif.) at a concentration of 10 mg/ml. Cells were treated with the proteasome inhibitor MG132 (Calbiochem, San Diego, Calif.) at a concentration of 100 nM.
Western blot analysis. Whole cell lysates were prepared at the indicated time points following treatment. […] Protein quantity was determined by the Bradford Assay Reagent (Bio-Rad). […]

## O=CC[C@@H](O)[C@H](O)[C@H](O)CO [2DG, 2-Deoxy-D-glucose]
U118 glioma cells
  ECT2 expression: reduced
  mTOR activity: significantly lower
U118 glioma cells; glycolysis inhibition
  phosphorylated AMPK: higher level

## CC(C)C[C@@H](C=O)NC(=O)[C@H](CC(C)C)NC(=O)[C@H](CC(C)C)NC(=O)OCc1ccccc1 [MG132] (Cbz-Leu-Leu-Leu-aldehyde)
p27^Kip1
  Ect2-mediated suppression of p27^Kip1: completely abrogated

## CC[C@H]1/C=C/C=C/C[C@@H](C)[C@H](O)[C@@](C)(O)C(=O)[C@@H](C)[C@H](O)[C@@H](C)C(=O)[C@@H](C)[C@H](O)[C@@H](C)/C=C/C(=O)O[C@@H]2[C@H](C)[C@H](CC1)O[C@]1(CC[C@H](C)[C@H](C[C@@H](C)O)O1)[C@H]2C [oligomycin]
U118 glioma cells
  ECT2 expression: did not affect
  mTOR activity: did not affect
